Measured values as given in patent publication US20230194530A1, “CIRCULATING CARDIOVASCULAR BIOMARKERS AND VASCULAR STABILIZING THERAPY” (priority 2021, published 2023).

System: VE-cadherin and Claudin-5 in pHUVECs
Experiment: Immunofluorescence of VE-cadherin and Claudin-5 junctional staining in pHUVECs treated with COVID-19 patient plasma
Format: cell-based, human
Conditions: co-treatment with moderate or severe COVID-19 plasma, six hours

**Q.** Nangibotide was tested. Which “disruption of the EC barrier, as examined through junctional protein expression (VE-cadherin, Claudin-5)” value did it give?
**A.** could maintain junctional protein expression
